# Measurements published in patent publication US6747061B2, “N-substituted dithiocarbamates for the treatment of biological disorders” (AtheroGenics, Inc., priority 2000, dated 2004).
# Test system: cytokine induced oxidatively modified proteins in NHBE cells
# Test: OxyBlot oxidized protein analysis
# Type: cell-based, human
# Settings: TNF + IL-4, FIG. 4
# Protocol: The OxyBlot™ assay (Intergen) detects oxidative modification of proteins by reactive oxygen species such as hydroxynonenal. As a consequence of the modification, carbonyl groups are introduced into protein side chains by a site-specific mechanism. OxyBlot™ detects these carbonyl groups, which is a hallmark of the oxidation status of proteins.
# Normal human bronchial epithelial cells (NHBE) were purchased from Clonetics. They were cultured in BEGM (Clonetics) media without retinoic acid. In a typical experiment, the cells were seeded in 24-well plates. Media was changed to BEGM without retinoic acid (RA) and hydrocortisone (HC) 24 hr before dosing. Cells were then exposed to compounds in fresh BEGM without RA and HC for 20 min at 37° C., subsequently stimulated with TNF (10 ng/ml) and IL-4 (20 ng/ml) purchased from Boehringer Mannheim for another 20 min at 37° C. All compounds were dissolved in DMSO and the final concentration of DMSO was 0.2%.
# Cells were washed 3 times with cold PBS, and lysed in 100 μl/well 1×RIPA buffer (25 mM Tris pH7.6, 150 mM NaCl, 2 mM EDTA, 1% IGEPAC, 0.5% deoxycholate, 0.1% SDS), 50 mM DTT, 1 mM PMSF, […] leupeptin, 1 μl/ml aprotinin. The cell lysates were clarified by centrifugation. 5 μl of the lysates were mixed with 5 μl 12% SDS (OxyBlot™ kit) and 10 μl of 1×2,4-Dintirophenylhydrazin (DNPH) (OxyBlot™ kit). […]
smiles,measurement,value
"S=C(S)N1CCCC1 [PTDC, pyrrolidine dithiocarbamate, reference compound]",inhibition of cytokine induced oxidatively modified proteins,inhibit
